Experimental data: patent US20260176285A1, “SALT OF DIOXANE QUINOLINE COMPOUND, CRYSTAL FORM THEREOF, PREPARATION METHODS THEREFOR AND USES THEREOF” (Beijing Scitech-MQ Pharmaceuticals Limited, priority 2022, published 2026)

Assays:
[1] = Solid-state stability evaluation (XRPD, HPLC); type: physicochemical; details: listed as Mucate salt crystal form A-I
Procedure: The following 6 test samples were placed under 25° C./60% RH and 40° C./75% RH conditions for 1 week, and then the physical and chemical stability of the samples was tested by XRPD and HPLC.
At the same time, after the p-toluenesulfonate salt crystal form A-II and crystal form B-III solids were placed at 80° C. for 24 hours, the physical and chemical stability of the samples were tested by XRPD and HPLC.

[2] = Hygroscopicity by dynamic moisture sorption (DVS); type: physicochemical; details: DVS, listed as Mucate salt crystal form A-I
Procedure: Dynamic moisture sorption (DVS): The curves were collected on a DVS Intrinsic of SMS (Surface Measurement Systems). At 25° C., the humidity range was 0% RH-95% RH, the step was 10% (the last step was 5%), and the dm/dt was 0.002%/min.
The hygroscopicity of the free compound of formula (I), mucate salt crystal form A-I, p-toluenesulfonate salt crystal forms A-II and B-III, di-p-toluenesulfonate salt crystal form A-IV and phosphate salt crystal form A-V was evaluated by dynamic moisture sorption instrument (DVS). Starting from 0% relative humidity (0% RH), the test collected the mass change percentage of the samples under constant temperature of 25° C. with humidity changes (0% RH-95% RH-0% RH).

[3] = Dynamic solubility in water, SGF, FaSSIF and FeSSIF; type: physicochemical; parameters: S (dynamic solubility): unit not given here; details: listed as Mucate salt crystal form A-I; for S (dynamic solubility): 37° C., feed 10 mg/mL
Procedure: Biological solvent Preparation • 1. […] 67.5 μL of concentrated hydrochloric acid (12 M) was added and the mixture was adjusted to a pH value of 1.8 with 1 M hydrochloric acid or 1 M NaOH solution. Purified water was added to make up to volume. • 2. Preparation of Fasted State Simulated Intestinal Fluid (FaSSIF): 0.17 g of anhydrous NaH2PO4, 0.021 g of NaOH, and 0.31 g of NaCl were weighed into a 50-mL volumetric flask. About 48 mL of purified water was added to dissolve the mixture completely, and the solution was adjusted to a pH value of 6.5 with 1 M hydrochloric acid or 1 M NaOH solution. Purified water was added to make up to volume. 0.11 g of SIF powder was added and dissolved completely. • 3. Preparation of Fed State Simulated Intestinal Fluid (FeSSIF): 0.41 mL of glacial acetic acid, 0.20 g of NaOH and 0.59 g of NaCl were weighed into a 50-mL volumetric flask. About 48 mL of purified water was added to dissolve the mixture completely, and the solution was adjusted to a pH value of 5.0 with 1 M hydrochloric acid or 1 M NaOH solution. Purified water was added to make up to volume. 0.56 g of SIF powder was added and dissolved completely.
The dynamic solubility of the free state, the mucate salt crystal form A-I, the p-toluenesulfonate salt crystal form A-II, the di-p-toluenesulfonate salt crystal form A-IV and the phosphate salt crystal form A-V of the compound of formula (I) in water and three biological solvents was evaluated.
The samples at each time point were centrifuged and filtered (0.45 μm PTFE filter head), and the HPLC concentration and pH value of the filtrate were determined.

[4] = tested on: human lung cancer cells EBC-1; assay: Efficacy in nude mouse tumor-bearing model of human lung cancer cells EBC-1; type: in vivo, Balb/c nude mouse
Source text: In this assay, the free compound of formula (I) of the present application and different salts of the compound prepared in Examples 1, 2 and 5 were orally administered to a nude mouse tumor-bearing model of human lung cancer cells EBC-1 to study their effects on tumor growth.
Preparation of test compounds: an appropriate weight of the test compound (including the free form of the compound of formula (I) and different salts of the compound prepared in Examples 1, 2 and 5) was weighed, completely suspended/dissolved in an appropriate volume of 0.1% sodium carboxymethyl cellulose, stirred and vortexed to give a uniform solution or suspension.
Methods: All assays were authorized by the Animal Welfare Committee. EBC-1 in the logarithmic growth phase was inoculated into immune-deficient nude mice (BALB/c nude, female, 6-8 weeks old, weighing 18±2 g), subcutaneously on the right back, with a cell inoculation amount of 5×10^6/mouse. After the tumor grew to 150-200 mm^3, the animals were randomly divided into groups, 6 mice per group. The dose of each test substance was set at 15 mg/kg and 7.5 mg/kg (both based on the concentration of the effective formula (I) compound), and administered once a day for about 3 weeks. The test compounds were freshly prepared each day before use. During the assay, the tumor diameter was measured twice a week, and the mice were weighed at the same time. The calculation formula of tumor volume (TV) is: TV=1/2×a×b^2, where a and b represent length and width, respectively. The relative tumor volume (RTV) was calculated based on the measurement results, and the calculation formula is: RTV=Vt/V0, wherein V0 is the tumor volume measured at the time of cage grouping and dosing initiation (i.e., d0), and Vt is the tumor volume at each measurement. The evaluation index of antitumor activity is the relative tumor proliferation rate T/C (%), calculated as follows: T/C (%)=(TRTV/CRTV)×100%, TRTV: RTV of the treatment group; CRTV: RTV of the negative control group. T and C represent the average tumor volume at a certain time point in the drug administration group and the control group, respectively.

For `O=C(Nc1ccc(F)cc1)C1(C(=O)Nc2ccc(Oc3ccnc4cc(OCCCN5CCOCC5)c5c(c34)OCCO5)c(F)c2)CC1` [Example 1, N-(3-fluoro-4-((5-(3-morpholinopropoxy)-2,3-dihydro-[1,4]dioxano[2,3-f]quinolin-10-yl)oxy)phenyl)-N-(4-fluorophenyl)cyclopropane-1,1-dicarboxamide], the Purity ([1]; 25° C./60% RH, 1 week) was 99.54 area %, the Purity/initial purity ([1]; 25° C./60% RH, 1 week) was 100.0% and the Purity ([1]; 40° C./75% RH, 1 week) was 99.56 area %. For the same compound, the Purity/initial purity ([1]; 40° C./75% RH, 1 week) was 100.0%, the Purity ([1]; Starting) was 99.56 area % and the “Moisture adsorption (25° C./80% RH)” value ([2]; 25° C./80% RH) was 2.09%. The Hygroscopicity ([2]; 25° C.) was “Hygroscopic”, the “S (dynamic solubility)” value ([3]; FaSSIF, 1 hour) was 0.0036 and the “pH of the filtrate” value ([3]; FaSSIF, 1 hour) was 6.3. The “S (dynamic solubility)” value ([3]; FaSSIF, 2 hours) was 0.0048, the “pH of the filtrate” value ([3]; FaSSIF, 2 hours) was 6.2 and the “S (dynamic solubility)” value ([3]; FaSSIF, 4 hours) was 0.0042. The “pH of the filtrate” value ([3]; FaSSIF, 4 hours) was 6.2, the “S (dynamic solubility)” value ([3]; FaSSIF, 24 hours) was 0.0070 and the “pH of the filtrate” value ([3]; FaSSIF, 24 hours) was 5.5. The “S (dynamic solubility)” value ([3]; FeSSIF, 1 hour) was 1.3, the “pH of the filtrate” value ([3]; FeSSIF, 1 hour) was 4.9 and the “S (dynamic solubility)” value ([3]; FeSSIF, 2 hours) was 1.6. For the same compound, the “pH of the filtrate” value ([3]; FeSSIF, 2 hours) was 4.9, the “S (dynamic solubility)” value ([3]; FeSSIF, 4 hours) was 1.8 and the “pH of the filtrate” value ([3]; FeSSIF, 4 hours) was 4.9. For the same compound, the “S (dynamic solubility)” value ([3]; FeSSIF, 24 hours) was 1.8, the “pH of the filtrate” value ([3]; FeSSIF, 24 hours) was 4.9 and the “S (dynamic solubility)” value ([3]; H2O, 1 hour) was 0.11. The “pH of the filtrate” value ([3]; H2O, 1 hour) was 4.5, the “S (dynamic solubility)” value ([3]; H2O, 2 hours) was 0.11 and the “pH of the filtrate” value ([3]; H2O, 2 hours) was 4.4. For the same compound, the “S (dynamic solubility)” value ([3]; H2O, 4 hours) was 0.13, the “pH of the filtrate” value ([3]; H2O, 4 hours) was 4.8 and the “S (dynamic solubility)” value ([3]; H2O, 24 hours) was 0.11. For the same compound, the “pH of the filtrate” value ([3]; H2O, 24 hours) was 4.7, the “S (dynamic solubility)” value ([3]; SGF, 1 hour) was 5.4 and the “pH of the filtrate” value ([3]; SGF, 1 hour) was 3.1. The “S (dynamic solubility)” value ([3]; SGF, 2 hours) was 5.2, the “pH of the filtrate” value ([3]; SGF, 2 hours) was 3.1 and the “S (dynamic solubility)” value ([3]; SGF, 4 hours) was 5.1. For the same compound, the “pH of the filtrate” value ([3]; SGF, 4 hours) was 3.1, the “S (dynamic solubility)” value ([3]; SGF, 24 hours) was 5.3 and the “pH of the filtrate” value ([3]; SGF, 24 hours) was 3.2. The “T/C (relative tumor proliferation rate)” value ([4]; 7.5 mg/kg oral once a day, day 3) was 71.1%, the “T/C (relative tumor proliferation rate)” value ([4]; 7.5 mg/kg oral once a day, day 7) was 60.2% and the “T/C (relative tumor proliferation rate)” value ([4]; 7.5 mg/kg oral once a day, day 10) was 49.9%. The “T/C (relative tumor proliferation rate)” value ([4]; 7.5 mg/kg oral once a day, day 14) was 46.9%, the “T/C (relative tumor proliferation rate)” value ([4]; 7.5 mg/kg oral once a day, day 18) was 47.4% and the “T/C (relative tumor proliferation rate)” value ([4]; 7.5 mg/kg oral once a day, day 21) was 43.73%. For the same compound, the “T/C (relative tumor proliferation rate)” value ([4]; 15 mg/kg oral once a day, day 3) was 66.3%, the “T/C (relative tumor proliferation rate)” value ([4]; 15 mg/kg oral once a day, day 7) was 40.4% and the “T/C (relative tumor proliferation rate)” value ([4]; 15 mg/kg oral once a day, day 10) was 30.9%. For the same compound, the “T/C (relative tumor proliferation rate)” value ([4]; 15 mg/kg oral once a day, day 14) was 25.3%, the “T/C (relative tumor proliferation rate)” value ([4]; 15 mg/kg oral once a day, day 18) was 25.4% and the “T/C (relative tumor proliferation rate)” value ([4]; 15 mg/kg oral once a day, day 21) was 19.41%.
